# Reference: US11987637B1, “Prevention of disulfide bond reduction during recombinant production of polypeptides” (Genentech, Inc., priority 2007, dated 2024)
# What was measured:
# [1] = system: ocrelizumab disulfide bond reduction in HCCF; assay: Lab scale HCCF hold time study: percentage of intact antibody in protein A elution pools; type: biochemical, CHO; settings: for intact (150 kDa) antibody remaining in protein A elution pools: FIG. 19 legend, HCCF hold
# [2] = system: hexokinase, glucose-6-phosphate dehydrogenase, thioredoxin, thioredoxin reductase; assay: Reconstructed enzymatic reduction system, Bioanalyzer assay; settings: inhibitor 0.1 mM
# [3] = target: G6PD (Homo sapiens, UniProt P11413); settings: cited from earlier work
# [4] = system: ocrelizumab reduction in HCCF (Trx system, G6PD, hexokinase); assay: HCCF incubation experiment in mini-tanks, Bioanalyzer assay
# [5] = system: antibody disulfide bond reduction in CCF/HCCF; assay: Minimum effective inhibitor concentration to prevent antibody disulfide reduction in the CHO production process; type: biochemical; settings: for minimum effective inhibitory concentration as multiple of antibody concentration: usual
# [6] = target: T1, thioredoxin system (Trx, TrxR, NADPH) (Rattus norvegicus, UniProt O89049); assay: In vitro Trx/TrxR study in histidine sulfate buffer: reduction of ocrelizumab, Bioanalyzer assay; settings: for minimum inhibitory concentration as multiple of TrxR concentration: typical
# T1 sequence (O89049 1-499): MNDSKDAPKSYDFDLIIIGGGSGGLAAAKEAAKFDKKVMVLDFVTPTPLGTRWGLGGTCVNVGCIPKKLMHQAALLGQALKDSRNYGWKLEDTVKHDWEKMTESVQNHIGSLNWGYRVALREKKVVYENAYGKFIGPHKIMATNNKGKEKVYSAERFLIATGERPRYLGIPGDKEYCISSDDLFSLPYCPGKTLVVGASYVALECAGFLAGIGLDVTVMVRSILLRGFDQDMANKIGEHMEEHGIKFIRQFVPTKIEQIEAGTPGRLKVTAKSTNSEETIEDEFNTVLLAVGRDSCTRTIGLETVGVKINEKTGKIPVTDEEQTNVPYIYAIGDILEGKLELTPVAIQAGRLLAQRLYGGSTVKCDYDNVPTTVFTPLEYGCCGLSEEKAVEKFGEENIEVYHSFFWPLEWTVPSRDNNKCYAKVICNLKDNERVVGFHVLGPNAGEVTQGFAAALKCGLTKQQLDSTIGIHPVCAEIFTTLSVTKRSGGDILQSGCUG
# Experimental: (§1) A commercial TrxR (rat liver) solution (4 μM) was diluted with water to yield a 2.86 μM solution. Lyophilized Trx (human) was reconstituted with PBS (10 mM, pH 7.2) yielding a 500 μM solution. A solution of 20 mM NADPH and 10 mM ATG and ATM solutions were prepared in water.
# In a black polypropylene 1.5 mL micro centrifuge tube, 437 μL reaction buffer (10 mM histidine, 10 mM Na2SO4, 137 mM NaCl, 2.5 mM KCl, pH 7.0), 25 μL NADPH, 16 μL formulated ocrelizumab solution (30.2 mg/mL) and 5 μL Trx were gently mixed. The reaction was initiated by the addition of 17.5 μL TrxR. The reaction was incubated at room temperature for 24 hours. Aliquots of 20 μL were taken at each sampling time-point and stored at −70° C. until analyzed by the Bioanalyzer assay.
# [7] = target: T1, thioredoxin system (Trx, TrxR, NADPH); assay: In vitro Trx/TrxR study in PBS: reduction of ocrelizumab, Bioanalyzer assay; settings: inhibitor 1 mM, PBS (FIGS. 6, 7)
# Experimental: as §1
# In a black polypropylene 1.5 mL micro centrifuge tube, 437 μL PBS, 25 μL NADPH, 16 μL formulated ocrelizumab solution (30.2 mg/mL) and 5 μL Trx were gently mixed. The reaction was initiated by the addition of 17.5 μL TrxR. The reaction was incubated at room temperature for 24 hours. Aliquots of 20 μL were taken at each sampling time-point and stored at −70° C. until analyzed by the Bioanalyzer assay (see below).
# [8] = system: ocrelizumab reduction in HCCF; assay: Dialysis experiment: ocrelizumab in dialysis bag (MWCO 7000) incubated in HCCF; settings: ocrelizumab outside the bag in the HCCF (FIG. 2)
# Experimental: A dialysis experiment was carried out in order to determine whether the components causing reduction of ocrelizumab were small molecules or macromolecules (i.e. enzymes). A sample of 3 mL of purified and formulated ocrelizumab (30.2 mg/mL) was dialyzed against 1 L of phosphate buffered saline (PBS, 10 mM pH 7.2) for 24 hours and the PBS was changed after 8 hours. The concentration of the ocrelizumab sample was then adjusted to 1 mg/mL using the absorbance at 280 nm. Aliquots were stored at −70° C. prior to use. Dialysis tubing was hydrated overnight in a 0.05% azide solution and rinsed with sterile water prior to use. The HCCF obtained from homogenization of CCF from a 3-L fermentor was thawed and filtered through a 0.22 μm Millipak filter using a peristaltic pump. Six short mini-tanks were filled with 30 mL of HCCF each. To each mini-tank, 500 μL of ocrelizumab sample in sealed dialysis tubing was added.
# A dialysis experiment was designed and carried out to determine if the reduction of ocrelizumab was caused by small reducing molecules or macromolecules (e.g., enzymes). In this dialysis experiment, purified intact ocrelizumab was placed in a dialysis bag with a molecular weight cut off (MWCO) of 7000 and incubated the dialysis bag in HCCF containing ocrelizumab in a stainless steel mini-tank.
# [9] = system: ocrelizumab disulfide bond reduction in HCCF; assay: Air sparging of HCCF: percentage of intact antibody in protein A elution pools
# Experimental: To evaluate air sparging of the HCCF generated from homogenized CCF to prevent antibody disulfide reduction, 3-L glass or 15-L stainless steel vessels were utilized.
# Approximately 1-5 L of HCCF was 0.22 μm sterile filtered into each sterilized vessel. Experimental conditions were maintained at 18-22° C. and 50 (15-L fermentor) or 275 rpm (3-L fermentor) agitation either with or without pH control by the addition of carbon dioxide. Solutions were either sparged with air to increase the dissolved oxygen level to air saturation or with nitrogen (control) to remove any dissolved oxygen in solution. Gas flow to each vessel was variable dependent upon whether a constant aeration rate was used or a minimum level of dissolved oxygen was maintained. At pre-determined time points, 25-50 mL samples were removed from both vessels and purified over a lab scale protein A affinity resin prior to analysis.
# The antibody concentration in the purified protein A pool was measured using UV spectrometry at 280 nm. The purified protein A elution pools were analyzed by the Bioanalyzer assay to quantitate the percentage of intact antibody at 150 kDa molecular weight.
# One HCCF mixture generated from homogenized CCF was stored and held in two separate L stainless steel fermentors. One vessel was sparged with air while the other vessel was sparged with nitrogen gas. The ocrelizumab antibody was purified immediately (t=0 hr) from the initial mixture using protein A chromatography. At selected time points, 50 mL samples were removed from each vessel and the antibody was purified using protein A chromatography. Purified protein A elution pools were then analyzed by the Bioanalyzer assay to quantitate the percentage of intact antibody at 150 kDa.
# [10] = inhibitor 1 mM, HCCF from homogenized CCF of a 3-L fermentor (FIGS. 11, 12)
# [11] = inhibitor 2.6 mM (FIGS. 38, 39)
# [12] = added pre-lysis, antibody 2H7 (Variant A)
# G6PD, sequence (P11413 whole entry): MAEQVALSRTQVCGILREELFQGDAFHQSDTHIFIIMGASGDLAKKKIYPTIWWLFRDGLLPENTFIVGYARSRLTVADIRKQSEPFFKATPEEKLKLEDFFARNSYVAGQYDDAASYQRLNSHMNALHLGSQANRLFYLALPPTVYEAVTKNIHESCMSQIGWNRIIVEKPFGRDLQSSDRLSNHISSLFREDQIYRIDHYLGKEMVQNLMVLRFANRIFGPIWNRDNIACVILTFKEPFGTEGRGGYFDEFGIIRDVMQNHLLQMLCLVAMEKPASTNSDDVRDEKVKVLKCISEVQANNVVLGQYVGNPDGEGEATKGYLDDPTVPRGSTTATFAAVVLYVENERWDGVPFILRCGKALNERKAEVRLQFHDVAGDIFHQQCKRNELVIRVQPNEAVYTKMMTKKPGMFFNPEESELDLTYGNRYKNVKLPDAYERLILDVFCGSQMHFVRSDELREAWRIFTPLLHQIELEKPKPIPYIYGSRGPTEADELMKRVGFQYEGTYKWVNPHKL
compound,measurement,setting,value
"O=S(=O)([O-])[O-].[Cu+2] [CuSO4, cupric sulfate]",intact (150 kDa) antibody remaining in protein A elution pools,[1],~100%
"C[C@]12CC[C@H](O)CC1=CC[C@@H]1[C@@H]2CC[C@]2(C)C(=O)CC[C@@H]12 [DHEA, dehydroepiandrosterone]",inhibition of ocrelizumab reduction,[2],does not inhibit the reduction
same,G6PD inhibition,[3],effectively blocks G6PD activity
same,inhibition of antibody reduction in HCCF,"[4]; DHEA added to HCCF, concentration not given",prevents antibody reduction
"O=C(O)CN(CCN(CC(=O)O)CC(=O)O)CC(=O)O [EDTA, ethylenediaminetetraacetic acid]",intact (150 kDa) antibody remaining in protein A elution pools,[1],~100%
same,minimum effective concentration,[5]; antibody 2H7 (Variant A),about 10 mM
same,inhibition of ocrelizumab reduction in HCCF,"[4]; 20 mM EDTA with 5 mM G6P, beta run HCCF that had fully lost reducing activity (FIG. 18)",unable to prevent the reduction
same,inhibition of ocrelizumab reduction in HCCF,"[4]; 20 mM EDTA, HCCF from 12,000 L manufacturing run (alpha run) (FIG. 17)",completely inhibited
"NC(=O)C1=CN([C@@H]2O[C@H](COP(=O)(O)OP(=O)(O)OC[C@H]3O[C@@H](n4cnc5c(N)ncnc54)[C@H](OP(=O)(O)O)[C@@H]3O)[C@@H](O)[C@H]2O)C=CC1 [NADPH, α-nicotinamide adenine dinucleotide phosphate]",restoration of lost reduction activity in HCCF,"[4]; 5 mM NADPH, beta run HCCF after several freeze/thaw cycles (FIG. 14)",the reduction event returned
"O=C[C@H](O)[C@@H](O)[C@H](O)[C@H](O)COP(=O)(O)O [Variant G6P, glucose-6-phosphate]",restoration of lost reduction activity in HCCF,"[4]; 10 mM G6P, repeatedly freeze-thawed beta run HCCF (FIG. 15)",reactivated the Trx system
OC[C@H]1O[C@H]([S-])[C@H](O)[C@@H](O)[C@@H]1O.[Au+] [aurothioglucose],inhibition of ocrelizumab reduction by Trx system,"[6]; inhibitor 0.2 μM (2:1 ATG:TrxR), after 24 hours (FIG. 28)",cannot inhibit ocrelizumab reduction
same,inhibition of ocrelizumab reduction by Trx system,[6]; inhibitor 0.4 μM (4:1 ATG:TrxR) (FIG. 27),effectively inhibits the reduction of ocrelizumab
same,inhibition of ocrelizumab reduction by Trx system,[6]; inhibitor 0.6 μM (6:1 ATG:TrxR) (FIG. 26),effectively inhibits the reduction of ocrelizumab
same,inhibition of ocrelizumab reduction by Trx system,[6]; inhibitor 1 mM (FIG. 25),effectively inhibits the reduction of ocrelizumab
same,minimum inhibitory concentration as multiple of TrxR concentration,[6],around 4 × TrxR concentration
same,inhibition of ocrelizumab reduction by Trx system,[7],effectively inhibited the ocrelizumab reduction
same,inhibition of ocrelizumab reduction in HCCF,[4]; [10],completely inhibited
O=C(O)CC([S-])C(=O)O.[Au+] (stereo not drawn) [aurothiomalate],inhibition of ocrelizumab reduction by Trx system,[6]; inhibitor 0.01 mM (FIG. 30),effectively inhibits the reduction of ocrelizumab
same,inhibition of ocrelizumab reduction by Trx system,[6]; inhibitor 0.1 mM (FIG. 29),effectively inhibits the reduction of ocrelizumab
same,minimum inhibitory concentration as multiple of TrxR concentration,[6],around 4 × TrxR concentration
same,inhibition of ocrelizumab reduction by Trx system,[7],effectively inhibited the ocrelizumab reduction
same,inhibition of ocrelizumab reduction in HCCF,[4]; [10],completely inhibited
NCCSSCCN [cystamine],inhibition of ocrelizumab reduction by Trx system,"[6]; inhibitor 26.6 μM (1:1 cystamine:2H7 disulfide), after 24 hours (FIG. 37)",insufficient to inhibit the reduction of ocrelizumab
same,inhibition of ocrelizumab reduction by Trx system,"[6]; inhibitor 133 μM (5:1 cystamine:2H7 disulfide), after 24 hours (FIG. 36)",insufficient to inhibit the reduction of ocrelizumab
same,inhibition of ocrelizumab reduction by Trx system,[6]; inhibitor 266 μM (10:1 cystamine:2H7 disulfide) (FIG. 35),effectively inhibits thioredoxin-induced reduction of ocrelizumab
same,inhibition of ocrelizumab reduction by Trx system,[6]; inhibitor 532 μM (20:1 cystamine:2H7 disulfide) (FIG. 34),effectively inhibits thioredoxin-induced reduction of ocrelizumab
same,minimum effective inhibitory concentration as multiple of antibody concentration,[5],about 40 × of the antibody concentration (in μM)
N[C@@H](CSSC[C@H](N)C(=O)O)C(=O)O [cystine],inhibition of ocrelizumab reduction by Trx system,[6]; [11],effectively inhibits reduction of ocrelizumab
same,minimum effective concentration,"[5]; added in the cell culture medium, 2H7 (Variant A)",about 5.2 mM
same,minimum effective concentration,"[5]; added in the cell culture medium, Apomab",~6 mM
same,minimum effective concentration,"[5]; added in the cell culture medium, antibody Variant C",~9 mM
same,minimum effective concentration,"[5]; added pre-lysis, Apomab",about 1 mM
same,minimum effective concentration,[5]; [12],about 1.3 mM
same,minimum effective concentration,"[5]; added pre-lysis, antibody Variant C",about 4.5 mM
same,minimum effective inhibitory concentration as multiple of antibody concentration,[5],about 40 × of the antibody concentration (in μM)
"ocrelizumab: humanized anti-CD20 antibody 2H7 Variant A: VL SEQ ID NO:1, VH SEQ ID NO:2, L chain SEQ ID NO:6, H chain SEQ ID NO:7",reduction of ocrelizumab,[8],significantly reduced
same,intact antibody (150 kDa),"[1]; control mixture without any addition, 20 hr",not detected
same,intact (150 kDa) antibody remaining in protein A elution pools,"[9]; HCCF sparged with air, FIG. 20 legend",~100%
same,ocrelizumab reduction,"[9]; control HCCF after 5 hours of sparging with nitrogen, FIG. 20 legend",almost completely reduced
same,percentage of intact antibody at 150 kDa,"[9]; initial solution, t=0 hr",approximately 85%
same,percentage of intact antibody at 150 kDa,"[9]; sparged with nitrogen gas, 2 hr",28%
same,percentage of intact antibody at 150 kDa,"[9]; sparged with nitrogen gas, 6 hr",5%
same,"ocrelizumab reduction in HCCF, no addition","[4]; HCCF from 12,000 L manufacturing run, ambient temperature, more than 19 hours (FIG. 16)",reduced
same,"ocrelizumab reduction in HCCF, no addition",[4]; HCCF from homogenized CCF of a 3-L fermentor (FIG. 10),readily reduced
same,"ocrelizumab reduction in HCCF, no addition",[4]; beta run HCCF after several freeze/thaw cycles (FIG. 13),no ocrelizumab reduction was observed
oxidized glutathione [GSSG],inhibition of ocrelizumab reduction by Trx system,[6]; [11],effectively inhibits reduction of ocrelizumab
same,minimum effective concentration,[5]; [12],about 1.3 mM
same,minimum effective inhibitory concentration as multiple of antibody concentration,[5],about 40 × of the antibody concentration (in μM)
